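A five-concentration, 48-hour dose response in 96-well plates underlies each endpoint, interpolated linearly between surrounding concentrations. Abbreviation: GI50, concentration required for 50% inhibition of growth.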 The source made the active and inactive calls. Cut-off read from the data, not from the text of the source: active = GI50 up to about 1.1 µM and inactive = higher.
Tests used:
Experiment in all cases: NCI anticancer screen, dose series, 48 h
HOP-62 = tested on: HOP-62
BT-549 = tested on: BT-549
DU-145 = tested on: DU-145
Hs-578T = tested on: Hs-578T
MDA-MB-231 = tested on: MDA-MB-231
MDA-N = tested on: MDA-N

Measured: GI50

COC(=O)C1C(C)N1C (stereo unspecified)
inactive: HOP-62 > 100 µM

CCOC(=O)NC(Nc1ncccn1)(C(=O)OCC)C(F)(F)F (stereo unspecified)
inactive: BT-549 > 100 µM | DU-145 > 100 µM | Hs-578T > 100 µM | MDA-MB-231 > 100 µM | MDA-N > 100 µM

Reference: ChEMBL document CHEMBL1201862, “PubChem BioAssay data set” (2004)
